{"source": "patent US12630523B2", "about": "“Isoquinoline derivatives for use as antiviral and antitumour agents” (priority 2021, dated 2026)", "key": {"[1]": {"test_system": "peripheral blood mononuclear cells (PBMC)", "assay": "Monolayer SRB assay, PBMC", "assay_type": "cell-based", "description": "(§1) Various cell culture cells grown as monolayers are harvested from exponential growing cultures after treatment with various OC compounds at different concentrations. For this depending on the cell line, 10.000 to 30.000 cells were plated in 96-well flat-bottom microtiter plates. After a 24 h recovery period to allow cells to resume exponential growth, supernatants are discarded and 100 μl of culture medium (eight control wells/plate) or culture medium with the test compound are added by a liquid handling robotic system (Microlab® Starlet, Hamilton) and treatment continued for 72 hrs. Compounds are applied at 9 concentrations and eight wells/concentration). At least three independent experiments are performed. For SRB staining, cells are fixed with SRB01 (Tab. 5) for 1 h at 4° C. […] Optical density is assessed using a plate-reader (Sunrise, Tecan©) at 540 nm.\n(§2) Concentrations required for half maximal response of the compound for cell growth inhibition (EC50) is calculated by non-linear regression (log[conc. of inhibitor] versus response (% T/C)) using the analysis software GraphPad Prism®, Prism 5 for windows, version 5.01 (GraphPad Software Inc., CA)."}, "[2]": {"assay": "Pharmacokinetics of OC246 after single oral administration", "assay_type": "in vivo, female NMRI mice", "details": "single oral 50 mg/kg", "description": "Pharmacokinetics were assessed for OC246 after single oral (p.o.) administration in female NMRI mice. The compound OC246 was suspended at 50 mg/kg with Lipoid S100 and Myritol 318. Oral dose was 50 mg/kg, Final Concentration 10 mg/ml and Administration Volume 5.0 ml/kg. Blood samples were taken from three mice at individual time points after 0.25, 0.5, 1, 2, 4, 6, 8, 16, and 24 hours from administration, and analyzed using HPLC and mass-spectroscopic bioanalytical methods.\nobs: observed; tmax: time point at Cmax; tlast: time at last quantifiable concentration; Cmax: maximum observed concentration; Clast: last quantifiable concentration; SE: standard error; AUClast: area under the concentration-time curve (AUC) calculated with trapezoidal rule between dosing time to the last measurement time point with a conc. value above the lower limit of quantification; AUCinf(obs): AUC calculated using the trapezoidal rule from 0 hours to infinity; AUC % extrapol: percentage of AUCinf(obs) that is due to the extrapolation from tlast to infinity; Rsq: goodness of fit for the determination λz in the terminal elimination phase; λz(Lambda_z): terminal elimination rate constant (of at least three last measured concentrations); t1/2: apparent terminal elimination half-life; CLobs: observed total (systemic) body clearance; Vz_obs: apparent volume of distribution based on AUClast and λz."}, "Hela (ATCC CCL-2)": {"test_system": "Hela (ATCC CCL-2)", "assay": "Monolayer SRB assay, Hela", "assay_type": "cell-based", "details": "Homo sapiens, 72 hrs, HPV18", "description": "as §1, §2"}, "[3]": {"test_system": "Retinoblastoma Protein pRb1", "assay": "Western blot of SiHa (HPV+) cell extracts", "assay_type": "cell-based, human", "details": "10 μM, 12 and 24 hours"}, "SARS-CoV-2": {"test_system": "SARS-CoV-2", "assay": "SARS-CoV-2/Huh7-EGFP HTS antiviral Assay (96-well)", "assay_type": "cell-based", "details": "Severe acute respiratory syndrome coronavirus 2, Huh-7; sublethal dose of 10 μM, Huh7, n4"}, "[4]": {"assay": "Pharmacokinetics of VSP034 and VSP035 after oral administration of a liposomal formulation", "assay_type": "in vivo, female Sprague-Dawley rats", "details": "for AUC(0-inf) / Cmax / MRT inf / Tmax / half-life: female, Sprague-Dawley; for AUC(0-inf): AUC0-inf; for MRT inf: MRT0-inf", "description": "The pharmacokinetic parameters of VSP034 and VSP035 encapsulated as liposomal formulation were assessed after the administration of a single 100 mg/kg dose by oral gavage to 6 female Sprague-Dawley rats weighting 250 grams (+25 g). The animals were randomized into two experimental groups (Groups 1 and 2), each composed of 3 rats. Rats belonging to group 1 were administered with VSP034 and rats belonging to group 2 were administered with VSP035. Blood was collected at baseline and 15 min, 30 min, 1, 2, 4, 6, 8, and 24 hours after the oral gavage. The rats were sacrificed 24 hours after the dosing. Blood was collected at each timepoint from the caudal vein, with the exception of the last collection (24 hours), which was performed by intracardiac puncture at the moment of sacrifice under isoflurane anesthesia. The animals were weighted immediately before the dosing to assess the proper dose and carefully monitored during the experiment. They were kept in standard housing conditions, meeting the legal requirements for the correct housing of rodents for a period not exceeding the maximum experimental endpoints. Ad libitum access to water and food was allowed. […] Humane endpoints have not been reached. The pharmacokinetic analysis was performed using Microsoft Excel plug-in PK Solver. Pharmacokinetic parameters of two compounds are compared with the software GraphPad Prism ver. 8.0 by Student's t test for unpaired data. A p value <0.05 is considered statistically significant.\nAnalytical method: Compound analysis was performed following the bioanalytical method as in Test 13. In this study, carbamazepine was used as an internal standard.\nPharmacokinetic analysis: A pharmacokinetic analysis of VSP034 and VSP035 was performed using the Excel plug-in 2.0 PK Solver. The results have been fitted according to a non-compartmental modelling following extravascular administration. Concentration-vs-time curves for VSP034 and VSP035.\nThe main pharmacokinetic parameters (half-life, t1/2; time to maximum plasma concentration, Tmax; maximum plasma concentration, Cmax, AUC Extrapolated to Infinity, AUC0-inf; mean residence time, MRT; Apparent Volume of Distribution During Terminal Phase, Vz/F; and apparent oral clearance, CL/F) were calculated from the coefficients and exponents of the best-fits by using standard formulae."}, "[5]": {"details": "female, NMRI, mouse, blood, mean"}, "[6]": {"details": "rat, in vivo, po, 100 mg/kg, Mean"}, "[7]": {"details": "rat, in vivo, po, 100 mg/kg, Median"}}, "data": [{"smiles": "Cc1ccc(CN2C(=O)c3ccccc3[C@H](C(=O)Nc3cccc(N4CCN(C)CC4)c3)[C@@H]2c2ccc(C(F)(F)F)cc2)cc1", "note": "[OC246, N-[3-(4-methylpiperazin-1-yl)phenyl]-2-[(4-methylphenyl)methyl]-1-oxo-3-[4-(trifluoromethyl)phenyl]-1,2,3,4-tetrahydroisoquinoline-4-carboxamide]", "values": [{"measurement": "EC50", "setting": "[1]", "result": "> 100", "unit": "µM"}, {"measurement": "half-life", "setting": "[2]; female, NMRI, mouse, blood", "result": 2.25, "unit": "h"}, {"measurement": "Tmax", "setting": "[2]; female, NMRI, mouse, blood, Lipoid S100 and Myritol 318, mean", "result": 2, "unit": "h"}, {"measurement": "AUC(0-t)", "setting": "[2]; [5]", "result": 11500, "unit": "ng·h/mL"}, {"measurement": "Cmax", "setting": "[2]; [5]", "result": 1740, "unit": "ng/mL"}, {"measurement": "AUC(0-inf)", "setting": "[2]; female, NMRI, mouse, blood, mean, read-out: AUCinf(obs)", "result": 11500, "unit": "ng·h/mL"}, {"measurement": "concentration at 24 h", "setting": "[2]; female, NMRI, mouse, blood, mean, read-out: Clast", "result": 5.18, "unit": "ng/mL"}, {"measurement": "AUC% extrapol (obs)", "setting": "[2]", "result": 0.146, "unit": "%"}, {"measurement": "CLobs", "setting": "[2]", "result": 72.38, "unit": "mL/min/kg"}, {"measurement": "Vz_obs", "setting": "[2]", "result": 14.073, "unit": "L/kg"}, {"measurement": "λz (terminal elimination rate constant)", "setting": "[2]", "result": 0.309, "unit": "h⁻¹"}, {"measurement": "tlast", "setting": "[2]; mean", "result": 24.00, "unit": "h"}, {"measurement": "EC50", "setting": "Hela (ATCC CCL-2)", "result": 2.68, "unit": "µM"}, {"measurement": "Rb protein signals", "setting": "[3]", "result": "increase of Rb protein signals"}]}, {"smiles": "CN1CCC(CN2C(=O)c3ccccc3[C@H](C(=O)Nc3cccc(N4CCN(C)CC4)c3)[C@H]2c2ccc(C(F)(F)F)cc2)CC1", "note": "[VSP035, (3S,4S)-N-[3-(4-methylpiperazin-1-yl)phenyl]-2-[(1-methylpiperidin-4-yl)methyl]-1-oxo-3-[4-(trifluoromethyl)phenyl]-1,2,3,4-tetrahydroisoquinoline-4-carboxamide]", "values": [{"measurement": "inhibition at 10 µM", "setting": "SARS-CoV-2", "result": "72 ± 7.7", "unit": "%"}, {"measurement": "AUC(0-inf)", "setting": "[4]; [6]", "result": 2230, "unit": "ng·h/mL"}, {"measurement": "AUC(0-inf)", "setting": "[4]; [7]", "result": 1480, "unit": "ng·h/mL"}, {"measurement": "Cmax", "setting": "[4]; [6]", "result": 246, "unit": "ng/mL"}, {"measurement": "Cmax", "setting": "[4]; [7]", "result": 277, "unit": "ng/mL"}, {"measurement": "MRT inf", "setting": "[4]; [6]", "result": 6.83, "unit": "h"}, {"measurement": "MRT inf", "setting": "[4]; [7]", "result": 6.59, "unit": "h"}, {"measurement": "Tmax", "setting": "[4]; [6]", "result": 2.42, "unit": "h"}, {"measurement": "Tmax", "setting": "[4]; [7]", "result": 1, "unit": "h"}, {"measurement": "half-life", "setting": "[4]; rat, in vivo, po, 100 mg/kg, t1/2, Mean", "result": 4.43, "unit": "h"}, {"measurement": "half-life", "setting": "[4]; rat, in vivo, po, 100 mg/kg, t1/2, Median", "result": 3.57, "unit": "h"}, {"measurement": "Vz/F, Mean", "setting": "[4]; rat, in vivo, po, 100 mg/kg", "result": 0.291, "unit": "L/g"}, {"measurement": "Vz/F, Median", "setting": "[4]; rat, in vivo, po, 100 mg/kg", "result": 0.278, "unit": "L/g"}, {"measurement": "condition of the rats after administration of the liposomal formulation", "setting": "[4]; single 100 mg/kg oral gavage, observed 24 hours", "result": "did not show any sign of suffering or abnormal behavior"}, {"measurement": "AUC relative to that of VSP034", "setting": "[4]; single 100 mg/kg oral, significantly higher", "result": 4, "unit": "fold"}]}]}
